Assay results taken from PubChem BioAssay (NCI).
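Dose response: 5 concentrations. Exposure: 48 h. Format: 96-well plates. Endpoint: linear interpolation; highest concentration if not reached. GI50 is the concentration that inhibits growth by half. TGI marks complete inhibition of growth.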

What was measured:
Test in all cases: growth of human tumour cells (NCI), 48 h
EKVX NSCLC = system: EKVX NSCLC
HOP-92 NSCLC = system: HOP-92 NSCLC
SNB-75 CNS = system: SNB-75 CNS
A498 renal = system: A498 renal
A549 NSCLC = system: A549 NSCLC
CCRF-CEM leukemia = system: CCRF-CEM leukemia
COLO 205 colon = system: COLO 205 colon
HL-60(TB) leukemia = system: HL-60(TB) leukemia
HS 578T breast = system: HS 578T breast
HT29 colon = system: HT29 colon
K-562 leukemia = system: K-562 leukemia
MCF7 breast = system: MCF7 breast
OVCAR-4 ovarian = system: OVCAR-4 ovarian
OVCAR-8 ovarian = system: OVCAR-8 ovarian
RPMI-8226 leukemia = system: RPMI-8226 leukemia
RXF 393 renal = system: RXF 393 renal
SK-MEL-2 melanoma = system: SK-MEL-2 melanoma
SK-OV-3 ovarian = system: SK-OV-3 ovarian
SR leukemia = system: SR leukemia
786-0 renal = system: 786-0 renal
ACHN renal = system: ACHN renal
BT-549 breast = system: BT-549 breast
DU-145 prostate = system: DU-145 prostate
HCT-116 colon = system: HCT-116 colon
IGROV1 ovarian = system: IGROV1 ovarian
M14 melanoma = system: M14 melanoma
MALME-3M melanoma = system: MALME-3M melanoma
MDA-MB-231 breast = system: MDA-MB-231 breast
MDA-MB-435 = system: MDA-MB-435
MOLT-4 leukemia = system: MOLT-4 leukemia
NCI-H226 lung = system: NCI-H226 lung
NCI-H460 lung = system: NCI-H460 lung
NCI-H522 lung = system: NCI-H522 lung
OVCAR-3 ovarian = system: OVCAR-3 ovarian
OVCAR-5 ovarian = system: OVCAR-5 ovarian
PC-3 prostate = system: PC-3 prostate
SF-268 CNS = system: SF-268 CNS
SF-295 CNS = system: SF-295 CNS
SF-539 CNS = system: SF-539 CNS
SK-MEL-28 melanoma = system: SK-MEL-28 melanoma
SK-MEL-5 melanoma = system: SK-MEL-5 melanoma
SN12C renal = system: SN12C renal
SW-620 colon = system: SW-620 colon
T-47D breast = system: T-47D breast
TK-10 renal = system: TK-10 renal
U251 CNS = system: U251 CNS
UACC-257 melanoma = system: UACC-257 melanoma
UACC-62 melanoma = system: UACC-62 melanoma
UO-31 renal = system: UO-31 renal
CAKI-1 renal = system: CAKI-1 renal
HCC-2998 colon = system: HCC-2998 colon
HCT-15 colon = system: HCT-15 colon
KM12 colon = system: KM12 colon
LOX IMVI melanoma = system: LOX IMVI melanoma
NCI-H23 lung = system: NCI-H23 lung
NCI/ADR-RES ovarian = system: NCI/ADR-RES ovarian
SNB-19 CNS = system: SNB-19 CNS

## Nc1nc(Cl)cc(OCC2(CO)CCC2)n1
EKVX NSCLC
  GI50: 60.6 µM
HOP-92 NSCLC
  GI50: 51.3 µM
SNB-75 CNS
  GI50: 68.4 µM

## C[C@H](c1ccc(Cl)cc1[N+](=O)[O-])N1C(=O)c2cc(I)ccc2N=C(OCCCN2CCN(C)CC2)[C@@H]1c1ccc(Cl)cc1
A498 renal
  GI50: 2.08 µM
  TGI: 5.42 µM
A549 NSCLC
  GI50: 1.57 µM
  TGI: 3.14 µM
CCRF-CEM leukemia
  GI50: 2.18 µM
  TGI: 5.41 µM
COLO 205 colon
  GI50: 1.69 µM
  TGI: 3.27 µM
HL-60(TB) leukemia
  GI50: 2.44 µM
  TGI: 4.41 µM
HS 578T breast
  GI50: 2.02 µM
  TGI: 6.47 µM
HT29 colon
  GI50: 1.91 µM
  TGI: 3.49 µM
K-562 leukemia
  GI50: 1.81 µM
  TGI: 4.03 µM
MCF7 breast
  GI50: 1.64 µM
  TGI: 3.26 µM
OVCAR-4 ovarian
  GI50: 1.6 µM
  TGI: 3.15 µM
OVCAR-8 ovarian
  GI50: 1.61 µM
  TGI: 3.4 µM
RPMI-8226 leukemia
  GI50: 2.33 µM
  TGI: 6.5 µM
RXF 393 renal
  GI50: 1.73 µM
  TGI: 3.25 µM
SK-MEL-2 melanoma
  GI50: 2.11 µM
  TGI: 4.05 µM
SK-OV-3 ovarian
  GI50: 1.79 µM
  TGI: 3.24 µM
SNB-75 CNS
  GI50: 1.71 µM
  TGI: 4.27 µM
SR leukemia
  GI50: 1.65 µM
  TGI: 3.88 µM

## C=C(C)[C@@H]1CCC=C2CC[C@]3(C)[C@H](CC[C@@H]4[C@@]5(C)CCCNC(C)(C)[C@@H]5CC[C@]43C)[C@H]21
786-0 renal
  GI50: 1.68 µM
  TGI: 3.04 µM
A498 renal
  GI50: 11.7 µM
  TGI: 26.9 µM
A549 NSCLC
  GI50: 2.04 µM
  TGI: 3.86 µM
ACHN renal
  GI50: 1.85 µM
  TGI: 3.25 µM
BT-549 breast
  GI50: 4.5 µM
  TGI: 20.7 µM
CCRF-CEM leukemia
  GI50: 2.48 µM
  TGI: 7.21 µM
COLO 205 colon
  GI50: 1.9 µM
  TGI: 3.65 µM
DU-145 prostate
  GI50: 1.86 µM
  TGI: 3.57 µM
EKVX NSCLC
  GI50: 2.17 µM
  TGI: 5.6 µM
HCT-116 colon
  GI50: 1.79 µM
  TGI: 3.2 µM
HL-60(TB) leukemia
  GI50: 1.58 µM
  TGI: 3.57 µM
HS 578T breast
  GI50: 2.01 µM
  TGI: 4.87 µM
IGROV1 ovarian
  GI50: 1.91 µM
  TGI: 3.54 µM
M14 melanoma
  GI50: 1.73 µM
  TGI: 3.34 µM
MALME-3M melanoma
  GI50: 1.77 µM
  TGI: 3.74 µM
MDA-MB-231 breast
  GI50: 1.77 µM
  TGI: 3.31 µM
MDA-MB-435
  GI50: 1.66 µM
  TGI: 3.11 µM
MOLT-4 leukemia
  GI50: 1.87 µM
  TGI: 4.09 µM
NCI-H226 lung
  GI50: 2.8 µM
  TGI: 9.14 µM
NCI-H460 lung
  GI50: 1.93 µM
  TGI: 3.73 µM
NCI-H522 lung
  GI50: 2.28 µM
  TGI: 5.64 µM
OVCAR-3 ovarian
  GI50: 1.8 µM
  TGI: 3.29 µM
OVCAR-5 ovarian
  GI50: 2.01 µM
  TGI: 4.46 µM
PC-3 prostate
  GI50: 2.31 µM
  TGI: 6.21 µM
RPMI-8226 leukemia
  GI50: 2.14 µM
  TGI: 5.15 µM
RXF 393 renal
  GI50: 1.63 µM
  TGI: 3.13 µM
SF-268 CNS
  GI50: 2.77 µM
  TGI: 8.53 µM
SF-295 CNS
  GI50: 1.69 µM
  TGI: 3.13 µM
SF-539 CNS
  GI50: 1.89 µM
  TGI: 3.58 µM
SK-MEL-2 melanoma
  GI50: 2.34 µM
  TGI: 5.5 µM
SK-MEL-28 melanoma
  GI50: 2.03 µM
  TGI: 4.07 µM
SK-MEL-5 melanoma
  GI50: 3.58 µM
  TGI: 14 µM
SK-OV-3 ovarian
  GI50: 12.1 µM
  TGI: 27.3 µM
SN12C renal
  GI50: 1.79 µM
  TGI: 3.48 µM
SNB-75 CNS
  GI50: 1.67 µM
  TGI: 3.94 µM
SR leukemia
  GI50: 1.25 µM
  TGI: 3.65 µM
SW-620 colon
  GI50: 1.84 µM
  TGI: 3.59 µM
T-47D breast
  GI50: 1.77 µM
  TGI: 4.83 µM
TK-10 renal
  GI50: 2.02 µM
  TGI: 4.98 µM
U251 CNS
  GI50: 1.69 µM
  TGI: 3.12 µM
UACC-257 melanoma
  GI50: 3.34 µM
  TGI: 9.32 µM
UACC-62 melanoma
  GI50: 1.92 µM
  TGI: 3.84 µM
UO-31 renal
  GI50: 1.53 µM
  TGI: 2.99 µM

## CN1CCN(Cc2c[nH]c3c2C(=O)c2c(c(O)c4ccccc4c2O)C3=O)CC1
A549 NSCLC
  GI50: 10.7 µM
  TGI: 25.4 µM
ACHN renal
  GI50: 11.3 µM
  TGI: 23.5 µM
BT-549 breast
  GI50: 18.6 µM
  TGI: 34.5 µM
CAKI-1 renal
  GI50: 3.16 µM
  TGI: 18.8 µM
CCRF-CEM leukemia
  GI50: 3.51 µM
  TGI: 18.5 µM
COLO 205 colon
  GI50: 31.7 µM
  TGI: 70.7 µM
EKVX NSCLC
  GI50: 13.1 µM
  TGI: 26.7 µM
HCC-2998 colon
  GI50: 11.2 µM
  TGI: 23.3 µM
HCT-116 colon
  GI50: 1.92 µM
  TGI: 10.5 µM
HCT-15 colon
  GI50: 3.46 µM
  TGI: 15.6 µM
HL-60(TB) leukemia
  GI50: 10.3 µM
  TGI: 70.4 µM
HOP-92 NSCLC
  GI50: 7.09 µM
  TGI: 21.8 µM
HS 578T breast
  GI50: 17 µM
  TGI: 32.8 µM
HT29 colon
  GI50: 26.3 µM
  TGI: > 100 µM
IGROV1 ovarian
  GI50: 3.74 µM
  TGI: 23.4 µM
K-562 leukemia
  GI50: 2.82 µM
  TGI: > 100 µM
KM12 colon
  GI50: 3.46 µM
  TGI: 15.2 µM
LOX IMVI melanoma
  GI50: 1.92 µM
  TGI: 3.8 µM
M14 melanoma
  GI50: 1.79 µM
  TGI: 5.12 µM
MALME-3M melanoma
  GI50: 12.7 µM
  TGI: 29.3 µM
MCF7 breast
  GI50: 5.15 µM
  TGI: 17.7 µM
MDA-MB-231 breast
  GI50: 7.19 µM
  TGI: 19.9 µM
MDA-MB-435
  GI50: 3.98 µM
  TGI: 16.4 µM
MOLT-4 leukemia
  GI50: 4.02 µM
  TGI: > 100 µM
NCI-H226 lung
  GI50: 16.8 µM
  TGI: 36.5 µM
NCI-H23 lung
  GI50: 12.9 µM
  TGI: 26.9 µM
NCI-H460 lung
  GI50: 5.42 µM
  TGI: 17.9 µM
NCI-H522 lung
  GI50: 14.1 µM
  TGI: 33.8 µM
NCI/ADR-RES ovarian
  GI50: 11.7 µM
  TGI: 25.5 µM
OVCAR-3 ovarian
  GI50: 11.2 µM
  TGI: 33.2 µM
OVCAR-4 ovarian
  GI50: 21.3 µM
  TGI: 42.6 µM
OVCAR-5 ovarian
  GI50: 18.1 µM
  TGI: 33.6 µM
OVCAR-8 ovarian
  GI50: 6.34 µM
  TGI: 26 µM
PC-3 prostate
  GI50: 5.53 µM
  TGI: 21.6 µM
RPMI-8226 leukemia
  GI50: 3 µM
  TGI: 26.5 µM
RXF 393 renal
  GI50: 6.22 µM
  TGI: 19 µM
SF-268 CNS
  GI50: 11.1 µM
  TGI: 23.2 µM
SF-295 CNS
  GI50: 15 µM
  TGI: 35.4 µM
SK-MEL-28 melanoma
  GI50: 19.6 µM
  TGI: 38.3 µM
SK-MEL-5 melanoma
  GI50: 14 µM
  TGI: 26.9 µM
SK-OV-3 ovarian
  GI50: 28.4 µM
  TGI: 55.2 µM
SN12C renal
  GI50: 10.3 µM
  TGI: 21.9 µM
SNB-19 CNS
  GI50: 22.4 µM
  TGI: 52 µM
SNB-75 CNS
  GI50: 26.6 µM
  TGI: 55.7 µM
SW-620 colon
  GI50: 12.5 µM
  TGI: 25 µM
TK-10 renal
  GI50: 1.46 µM
  TGI: 14.9 µM
U251 CNS
  GI50: 11.1 µM
  TGI: 27.9 µM
UACC-257 melanoma
  GI50: 15.9 µM
  TGI: 33.1 µM
UACC-62 melanoma
  GI50: 16.5 µM
  TGI: 31.6 µM
UO-31 renal
  GI50: 11.2 µM
  TGI: 32.4 µM
